Data taken from patent US7208512B2, “Benzodifuranimidazoline and benzofuranimidazoline derivatives and their use for the treatment of glaucoma” (Alcon, Inc., priority 2001, dated 2007).

Assays:
5-HT2 receptor [1] = target: T1, 5-HT2 receptor (Rattus norvegicus, UniProt P14842); assay: 5-HT2 receptor binding assay ([125I]DOI competition, rat cerebral cortex homogenates)
Description: Aliquots of post mortem rat cerebral cortex homogenates (400 μl) dispersed in 50 mM TrisHCl buffer (pH 7.4) are incubated with [^125I]DOI (80 pM final) in the absence or presence of methiothepin (10 μM final) to define total and non-specific binding, respectively, in a total volume of 0.5 ml. The assay mixture is incubated for 1 hour at 23° C. in polypropylene tubes and the assays terminated by rapid vacuum filtration over Whatman GF/B glass fiber filters previously soaked in 0.3% polyethyleneimine using ice-cold buffer. Test compounds (at different concentrations) are substituted for methiothepin. Filter-bound radioactivity is determined by scintillation spectrometry on a beta counter. The data are analyzed using a non-linear, iterative curve-fitting computer program (Bowen et al. 1995) to determine the compound affinity parameter.

5-HT2 receptor [2] = target: T1, 5-HT2 receptor; assay: 5-HT2 functional assay: phosphoinositide (PI) turnover in A7r5 rat vascular smooth muscle cells; format: cell-based; parameters: A7r5 rat vascular smooth muscle cells; endogenous in cells; host or cells: A7r5 rat vascular smooth muscle cells; settings: [3H]-IPs production in A7r5 cells
Description: The relative agonist activity of serotonergic compounds at the 5-HT2 receptor can be determined in vitro using the ability of the compounds to stimulate the production of [^3H]inositol phosphates in [^3H]myo-inositol-labeled A7r5 rat vascular smooth muscle cells by their ability to activate the enzyme phospholipase C. These cells are grown in culture plates, maintained in a humidified atmosphere of 5% CO2 and 95% air and fed semi-weekly with Dulbecco's modified Eagle medium (DMEM) containing 4.5 g/l glucose and supplemented with 2 mM glutamine, 10 μg/ml gentamicin, and 10% fetal bovine serum. […] Confluent cells are exposed for 24–30 hrs to 1.5 μCi [^3H]-myo-inositol (18.3 Ci/mmol) in 0.5 ml of serum-free medium. Cells are then rinsed once with DMEM/F-12 containing 10 mM LiCl prior to incubation with the test agent (or solvent as the control) in 1.0 ml of the same medium for 1 hr at 37° C., after which the medium is aspirated and 1 ml of cold 0.1 M formic acid added to stop the reaction. […] The eluate (4 ml) is collected, mixed with 15 ml scintillation fluid, and the total [^3H]-IPs determined by scintillation counting on a beta-counter. Concentration-response data are analyzed by the sigmoidal fit function of the Origin Scientific Graphics software (Microcal Software, Northampton, Mass.) to determine agonist potency (EC50 value) and efficacy (Emax). […]

T1 sequence (P14842 whole entry): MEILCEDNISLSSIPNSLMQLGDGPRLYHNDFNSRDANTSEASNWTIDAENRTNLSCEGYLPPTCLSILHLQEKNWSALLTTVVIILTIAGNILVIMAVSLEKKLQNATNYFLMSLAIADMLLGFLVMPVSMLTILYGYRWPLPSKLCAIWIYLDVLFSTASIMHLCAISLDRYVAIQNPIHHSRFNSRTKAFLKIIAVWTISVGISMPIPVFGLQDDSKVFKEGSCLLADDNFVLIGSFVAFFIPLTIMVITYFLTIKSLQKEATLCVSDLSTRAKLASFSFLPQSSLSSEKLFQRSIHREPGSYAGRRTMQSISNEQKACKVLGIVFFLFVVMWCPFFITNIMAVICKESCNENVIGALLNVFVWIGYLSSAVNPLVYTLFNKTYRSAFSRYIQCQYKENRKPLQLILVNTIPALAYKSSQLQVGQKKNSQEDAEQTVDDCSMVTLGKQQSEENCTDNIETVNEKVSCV

Structure (SMILES): COc1cc(C[C@@H](C)N)c(OC)cc1I [(R)-DOI, reference compound]
- IC50 (5-HT2 receptor [1]): 0.46 nM
- EC50 (5-HT2 receptor [2]): 277 nM
